Measured values from publication PMC10282731, “Pyrrolo[2,3-e]indazole as a novel chemotype for both influenza A virus and pneumococcal neuraminidase inhibitors” (RSC Advances, 2023).
Values after ≈ are worked out from the molar mass of the structure shown. Values joined by “and” are separate entries in the source; they are usually repeats but may differ in a detail not shown here. Equal entries are not always repeated. Where two headings read alike, the source gives them in different places.

Columns and labels:
[1] = system: influenza A virus A/Jena/8178/09 (subtype A(H1N1)pdm09); assay: Influenza A virus-induced CPE inhibition assay in MDCK cells (A/Jena/8178/09); type: cell-based; conditions: A(H1N1)pdm09, 48 h, maximum 100 µM, n.a. = not active, read-out: IC50 (IAV) Jena/8178
[2] = system: neuraminidase of influenza A virus (IAV NA); assay: Human erythrocyte-based (hemagglutination-based) viral neuraminidase inhibition assay; type: biochemical, influenza A virus A/Jena/8178/09; conditions: human erythrocytes, 37 °C for 24 h, maximum 100 µM for test compounds
[3] = biological target: neuraminidase NanA of S. pneumoniae strain DSM20566 (Streptococcus pneumoniae, UniProt P62575); assay: Lectin-based hemagglutination NA inhibition assay with pneumococcal neuraminidase; type: biochemical; conditions: ethanol-precipitated proteins of S. pneumoniae DSM20566, lectin-based hemagglutination assay
neuraminidase NanA of S. pneumoniae strain DSM20566, sequence (P62575 54-1035): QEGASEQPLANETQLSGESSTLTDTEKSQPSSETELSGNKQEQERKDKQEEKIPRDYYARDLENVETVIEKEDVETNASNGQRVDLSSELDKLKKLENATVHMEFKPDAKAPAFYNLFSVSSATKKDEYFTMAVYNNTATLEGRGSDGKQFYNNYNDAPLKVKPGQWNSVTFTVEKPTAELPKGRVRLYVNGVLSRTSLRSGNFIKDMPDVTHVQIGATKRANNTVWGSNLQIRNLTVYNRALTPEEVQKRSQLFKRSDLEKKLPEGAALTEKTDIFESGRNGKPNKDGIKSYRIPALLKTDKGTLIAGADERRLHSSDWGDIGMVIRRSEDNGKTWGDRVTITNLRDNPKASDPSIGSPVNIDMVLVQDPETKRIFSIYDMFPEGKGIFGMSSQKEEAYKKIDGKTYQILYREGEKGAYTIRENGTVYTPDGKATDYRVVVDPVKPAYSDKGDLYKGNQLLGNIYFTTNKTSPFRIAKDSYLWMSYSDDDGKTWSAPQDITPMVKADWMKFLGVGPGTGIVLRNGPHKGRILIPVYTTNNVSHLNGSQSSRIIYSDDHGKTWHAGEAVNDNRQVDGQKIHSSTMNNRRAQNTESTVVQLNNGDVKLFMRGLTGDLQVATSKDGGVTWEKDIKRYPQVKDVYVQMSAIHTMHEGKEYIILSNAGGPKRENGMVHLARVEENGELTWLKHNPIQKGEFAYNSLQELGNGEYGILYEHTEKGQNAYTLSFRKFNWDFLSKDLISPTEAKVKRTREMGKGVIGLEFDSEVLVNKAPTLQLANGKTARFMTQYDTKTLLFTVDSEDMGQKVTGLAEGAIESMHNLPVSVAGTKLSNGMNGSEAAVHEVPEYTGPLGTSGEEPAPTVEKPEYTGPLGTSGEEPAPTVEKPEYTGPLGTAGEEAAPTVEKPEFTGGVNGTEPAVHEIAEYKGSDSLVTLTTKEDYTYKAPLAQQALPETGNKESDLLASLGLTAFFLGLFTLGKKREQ

S. pneumoniae DSM20566 [4] = assay: Planktonic growth inhibition, microtiter broth microdilution assay; type: cell-based, Streptococcus pneumoniae; conditions: read-out: IC50 Planktonic growth
S. pneumoniae DSM20566 [5] = assay: Biofilm formation inhibition assay (crystal violet); type: cell-based, Streptococcus pneumoniae; conditions: read-out: IC50 Biofilm formation
in vitro = conditions: dog
[6] = system: influenza A virus A/HK/1/68 (subtype H3N2); assay: Influenza A virus-induced CPE inhibition assay in MDCK cells (A/HK/1/68); type: cell-based; conditions: H3N2, 48 h, maximum 100 µM, n.a. = not active, read-out: IC50 (IAV) HK/1/68
MDCK cells = conditions: read-out: CC50 (MDCK), 72 h incubation, maximum 100 µM
[7] = Streptococcus pneumoniae, DSM20566, 18 h

Molecule | IC50 ([1]; Influenza A virus) [µM] | MIC IAV NA (minimum neuraminidase inhibitory concentration) [2] [µM] | MIC S.p. NanA (minimum neuraminidase inhibitory concentration) [3] | melting point [°C] | CC50 at 72 h (in vitro) [µM] | other results
CCOC(=O)c1c(CN2CCCCC2)n(C)c2c1cc(O)c1c2c(-c2ccccc2)nn1-c1ccccc1 [Compound 10a] | 86.7 | 54.40 (≈ 27.7 µg/mL) | 31.60 µM (≈ 16.1 µg/mL) | 285 | > 100 | IC50 (S. pneumoniae DSM20566 [4]; Streptococcus pneumoniae, S. pneumoniae DSM20566, 18 h, OD 620 nm, maximum 50 μM): 6.88 µM; IC50 (S. pneumoniae DSM20566 [5]; Streptococcus pneumoniae, S. pneumoniae DSM20566, 24 h, crystal violet, maximum 50 μM): 3.31 µM
CCCCCOc1cc2c(C(=O)OCC)c(C)[nH]c2c2c(-c3ccc([N+](=O)[O-])cc3)nn(-c3ccccc3)c12 [Compound 11d] | 26.5 | – | – | – | > 100 | –
CCOC(=O)c1c(C)n(Cc2ccccc2)c2c1cc(O)c1c2c(-c2ccc([N+](=O)[O-])cc2)nn1-c1ccccc1 [Compound 6g, 1-Benzyl-5-hydroxy-3-ethoxycarbonyl-2-methyl-8-(4-nitrophenyl)-6-phenyl-pyrrolo[2,3-e]indazole] | – | – | – | 226 to 228 | – | CC50 (in vitro): > 100 µM
CCOC(=O)c1c(C)[nH]c2c1cc(OC(C)=O)c1c2c(-c2ccc([N+](=O)[O-])cc2)nn1-c1ccccc1 [Compound 11e] | 16.7 | 17.20 (≈ 8.57 µg/mL) | 10.0 µM and 10.00 µM | – | > 100 | –
CCOC(=O)c1c(C)n(Cc2ccccc2)c2c1cc(O)c1c2c(-c2ccccc2)nn1-c1ccccc1 [Compound 6c, 1-Benzyl-5-hydroxy-3-ethoxycarbonyl-2-methyl-6,8-diphenyl-pyrrolo[2,3-e]indazole] | 71.1 | 77.20 (≈ 38.7 µg/mL) | 24.40 µM (≈ 12.2 µg/mL) | 256 to 258 | – | IC50 (S. pneumoniae DSM20566 [4]; [7]): 8.9 µM; IC50 (S. pneumoniae DSM20566 [5]; Streptococcus pneumoniae, DSM20566, 24 h): 0.93 µM; CC50 (in vitro): > 100 µM
CCOC(=O)c1c(C)n(C)c2c1cc(O)c1c2c(-c2ccccc2)nn1-c1ccccc1 [Compound 6b, 5-Hydroxy-3-ethoxycarbonyl-1,2-dimethyl-6,8-diphenyl-pyrrolo[2,3-e]indazole] | 31.6 | 31.60 (≈ 13.4 µg/mL) | 31.60 µM (≈ 13.4 µg/mL) | 270 to 272 | > 100 | –
5-Hydroxy-3-ethoxycarbonyl-2-methyl-6-phenyl-8-[4-(trifluoromethyl)phenyl]-pyrrolo[2,3-e]indazole [Compound 6h] | – | 24.40 | 10.0 µM and 10.00 µM | – | – | IC50 [6]: 30.5 µM; IC50 [1]: 24.8 µM; IC50 (S. pneumoniae DSM20566 [4]; S. pneumoniae DSM20566, 18 h, OD 620 nm, maximum 50 μM): 50 µM; IC50 (S. pneumoniae DSM20566 [5]; S. pneumoniae DSM20566, 24 h, crystal violet, maximum 50 μM): 40.1 µM; CC50 (MDCK cells): > 100 µM
5-Hydroxy-3-ethoxycarbonyl-2-methyl-8-(4-nitrophenyl)-6-phenyl-pyrrolo[2,3-e]indazole [Compound 6e] | – | 54.40 | 14.32 µM | – | – | IC50 [6]: 16.4 µM; IC50 [1]: 19.5 µM; CC50 (MDCK cells): > 100 µM
CCOC(=O)c1c(C)n(C)c2c1cc(OC(C)=O)c1c2c(-c2ccccc2)nn1-c1ccccc1 [Compound 7a] | 83.7 | 100.00 (≈ 46.8 µg/mL) | 31.60 µM (≈ 14.8 µg/mL) | 214 to 216 | > 100 | –
CCOC(=O)c1c(CN2CCOCC2)n(Cc2ccccc2)c2c1cc(O)c1c2c(-c2ccccc2)nn1-c1ccccc1 [Compound 10b] | 33.2 | 54.40 (≈ 31.9 µg/mL) | 10.0 µM and 10.00 µM | 145 to 146 | – | IC50 (S. pneumoniae DSM20566 [4]; [7]): 7.57 µM; CC50 (in vitro): > 100 µM
CCOC(=O)c1c(C)n(-c2ccc(OC)cc2)c2c1cc(O)c1c2c(-c2ccccc2)nn1-c1ccccc1 [Compound 6d, 5-Hydroxy-3-ethoxycarbonyl-1-(4-methoxyphenyl)-2-methyl-6,8-diphenyl-pyrrolo[2,3-e]indazole] | 38.6 | 54.40 (≈ 28.2 µg/mL) | 17.20 µM (≈ 8.9 µg/mL) | 277 to 279 | > 100 | –
CCOC(=O)c1c(C)[nH]c2c1cc(O)c1c2c(-c2ccc(CC)cc2)nn1-c1ccccc1 [Compound 6j] | – | – | – | – | > 100 | IC50 ([6]; Influenza A virus): 52.2 µM
CCOC(=O)c1c(CN(CC)CC)n(C)c2c1cc(OC(C)=O)c1c2c(-c2ccccc2)nn1-c1ccccc1 [Compound 9b] | 53.2 | 77.20 (≈ 41.6 µg/mL) | 24.40 µM (≈ 13.1 µg/mL) | – | > 100 | –
